Source: patent US8802138B2, “Methods and compositions for improved deliver, expression or activity of RNA interference agents” (priority 2009, dated 2014)
“Also recorded” adds a separate entry of the source.

Experiments:
[1] = test system: Hs766T, MCF7 and PC3 cells; assay: siGLO release after pretreatment with enabler agent, confocal fluorescence microscopy; type: cell-based, human; settings: agent 4 hours, then liposomal siGLO (DC-RNAi) 6 hours
Protocol: (§1) The effectiveness of RIDES in enhancing the intracellular bioavailability of RNAi (i.e., promoting the delivery of RNAi to the cytosol and the release of RNAi from liposomes, endosomes or lysosomes) was studied by monitoring the intracellular trafficking and locations of lipid vectors and RNAi using confocal fluorescence microscopy. […] For monitoring the location of liposomes, rodamine-labeled lipids (red fluorescence) was added to the liposome during liposome preparation. Internalization of siGLO-containing liposomes into the cytosol of a cell yields punctuated red and green fluorescence signals.
Three studies were conducted using siGLO as the RNAi. The lipid vector was the DC liposomes. The study was performed in one or more of three human tumor cell lines, i.e., pancreatic Hs766T, breast cancer MCF7, and prostate cancer PC3.
The first study evaluated the effects of pretreatment with enabler agents. […] Additional cytotoxic agents not acting through tubulin interaction or topoisomerase inhibition, i.e., cisplatin and 5-fluorouracil, were included as side-by-side comparisons. Cells were treated with one of these agents for 4 hours, followed by incubation with liposomal siGLO for 6 hours. […] After pretreatment with enabler agent, cells were washed with cold FBS-free medium for 3 times, fixed with formalin, stained with the nucleus dye DRAQ5, and examined using confocal fluorescence microscopy. […] Because only the free siGLO (not embedded in liposomes) can enter the nucleus, the nuclear accumulation of siGLO indicates the release of RNAi from the liposomes, endosomes, or lysosomes.

[2] = test system: prostate cancer PC3 cells; assay: siGLO release with concurrent enabler treatment, confocal microscopy; type: cell-based, human; settings: agent concurrent with the siGLO treatment
Protocol: as §1
The study was performed in prostate cancer PC3 cells.

[3] = test system: HS766T cells; assay: Cytotoxicity of 4 hour paclitaxel treatment, MTT assay; type: cell-based, human; settings: 10 nM for 4 hours
Protocol: (§2) In vivo antitumor activity was measured in tumor-bearing animals. In vitro antitumor activity was measured in cultured cells using the microtetrazolium assay (MTT). This assay measures the ability of cells to reduce the MTT dye, and is generally used as a measurement of the total cell number.

[4] = test system: HS766T cells; assay: Concentration-dependence of paclitaxel effect on siGLO transfection; type: cell-based, human; settings: 10 and 50 nM for 4 hours
Protocol: as §1

[5] = test system: porcine arterial smooth muscle cells; assay: Paclitaxel cytotoxicity, MTT assay, normal cells; type: cell-based
Protocol: as §2
(§3) This was evaluated in porcine arterial smooth muscle cells; the duration of drug treatment was 36 hours. […] Cytotoxicity was measured using the using the MTT assay.

[6] = test system: pancreatic HS766T; assay: Paclitaxel cytotoxicity, MTT assay; type: cell-based, human
Protocol: as §2, §3

[7] = test system: breast MCF7 cells; assay: Paclitaxel cytotoxicity, MTT assay; type: cell-based, human
[8] = test system: prostate PC3; assay: Paclitaxel cytotoxicity, MTT assay; type: cell-based; settings: Homo sapiens, read-out: 50% inhibition of IC50 (nM); PC3, 48 hours
[9] = concentration time product producing 50% cytotoxicity

SMILES | nuclear accumulation of siGLO (release of RNAi from liposomes, endosomes or lysosomes) [1] | nuclear accumulation of siGLO [2] | also measured
O=c1[nH]cc(F)c(=O)[nH]1 [5-fluorouracil] | did not change the punctated pattern of siGLO localization; also recorded: ineffective |  | 
CC(=O)O[C@@]12CO[C@@H]1C[C@H](O)[C@@]1(C)C(=O)[C@H](O)C3=C(C)[C@@H](OC(=O)[C@H](O)[C@@H](NC(=O)OC(C)(C)C)c4ccccc4)C[C@@](O)([C@@H](OC(=O)c4ccccc4)[C@H]21)C3(C)C [docetaxel] | induced nuclear accumulation of green fluorescence signals |  | 
N.N.[Cl][Pt][Cl] [cisplatin] | did not change the punctated pattern of siGLO localization; also recorded: ineffective | ineffective | 
COC(=O)Nc1nc2ccc(C(=O)c3cccs3)cc2[nH]1 [nocodazole] | induced nuclear accumulation of green fluorescence signals | extensive nuclear accumulation of siGLO | 
COc1cccc2c1C(=O)c1c(O)c3c(c(O)c1C2=O)C[C@@](O)(C(=O)CO)C[C@@H]3O[C@H]1C[C@H](N)[C@H](O)[C@H](C)O1 [doxorubicin] | induced nuclear accumulation of green fluorescence signals |  | 
CC[C@]1(O)C[C@H]2CN(CCc3c([nH]c4ccccc34)[C@@](C(=O)OC)(c3cc4c(cc3OC)N(C=O)[C@H]3[C@@](O)(C(=O)OC)[C@H](OC(C)=O)[C@]5(CC)C=CCN6CC[C@]43[C@@H]65)C2)C1 [vincristine] | induced nuclear accumulation of green fluorescence signals |  | 
CC(=O)O[C@H]1C(=O)[C@@]2(C)[C@H]([C@H](OC(=O)c3ccccc3)[C@]3(O)C[C@H](OC(=O)[C@H](O)[C@@H](NC(=O)c4ccccc4)c4ccccc4)C(C)=C1C3(C)C)[C@]1(OC(C)=O)CO[C@@H]1C[C@@H]2O [paclitaxel] | induced nuclear accumulation of green fluorescence signals | extensive nuclear accumulation of siGLO | cytotoxicity [3]: no apparent toxicity; appearance of siGLO in the nucleus [4]: enhanced the appearance of siGLO in the nucleus at both concentrations; also recorded: effective; IC50 ([5]; Sus scrofa, read-out: 50% inhibition of IC50 (nM), 36 hours): 113 nM; CxT (nMxhr) [5, 9]: 4068 nMxhr; IC50 ([6]; Homo sapiens, read-out: 50% inhibition of IC50 (nM), 48 hours): 12.7 nM; CxT (nMxhr) [6, 9]: 610 nMxhr; IC50 ([7]; Homo sapiens, read-out: 50% inhibition of IC50 (nM), MCF7, 48 hours): 5.2 nM; CxT (nMxhr) ([7]; concentration time product producing 50% cytotoxicity, MCF7): 250 nMxhr; IC50 [8]: 15.5 nM
COc1cc2c(c(OC)c1OC)-c1ccc(OC)c(=O)cc1[C@@H](NC(C)=O)CC2 [colchicine] | induced nuclear accumulation of green fluorescence signals |  | 
